Each compound was assayed on LPS-induced TNF-α secretion from human PBMC (assay: Inhibition of LPS-induced TNF-α secretion from human PBMC). Details: hPBMC, LPS 10 ng/mL, 24 hours.
Format: cell-based
Experimental: Assay 3: Test of the inhibition of compounds on LPS-induced TNF-α secretion from human PBMC
Frozen hPBMC cell stock solution was rapidly thawed in a 37°C water bath. The cells were transferred to complete medium (RPMI 1640+10% FBS+1% P/S). The suspension was centrifuged at 1000 rpm for 5 minutes. The supernatant was discarded, and the cells were resuspended in 1 mL complete medium (RPMI 1640 + 10% FBS + 1% P/S). After gentle pipetting to mix, the cells were counted using trypan blue staining. Cells were seeded into a 96-well cell culture plate at 5×10^4 cells/well, with 100 µL/well of complete medium. Test compounds were prepared at 4×the final concentration and added to the cells at 50 µL/well, followed by a 30-minute pre-incubation. Control wells without compound were simultaneously set up. LPS was prepared as a 4×solution to achieve a final stimulation concentration of 10 ng/mL and added to the cells at 50µL/well. Control wells without LPS were simultaneously set up. The incubation of cells was continued and 10% of supernatant was collected for detection after 24 hours. The collected supernatant was detected according to the Human TNF-α kit of R&D Company (VAL105G). The inhibitory activities of the compounds of the present invention on LPS-induced TNF-α secretion from human PBMC were determined according to the above method. […]

| Structure (SMILES) | IC50 [nM] |
| --- | --- |
| COC1(c2ccc(Cl)cc2)CN(c2nc3c(c(NC4(CO)CCC4)n2)[S+]([O-])CC3)C1 (racemic) [Compound 83, (R/S)-2-(3-(4-chlorophenyl)-3-methoxyazetidin-1-yl)-4-((1-(hydroxymethyl)cyclobutyl)amino)-6,7-dihydrothieno[3,2-d]pyrimidine 5-oxide] | 1.35 |
| [O-][S+]1CCc2nc(N3CCC(c4ncc(Cl)cn4)CC3)nc(NC3(CO)CCC3)c21 (stereo not shown) [Control 1, reference compound] | 146 |

What follows are compounds tested against T1, PDE4D2 (Homo sapiens, UniProt Q08499) (assay: In vitro PDE4D2 enzyme inhibitory activity (AMP-Glo), reported as PDE4D2/PDE4B2 selectivity). Details: Ratio of IC50 value of PDE4D2 enzyme inhibition/IC50 value of PDE4B2 enzyme inhibition.
T1 construct: purchased BPS bioscience
T1 sequence (Q08499 303-809 limits assumed): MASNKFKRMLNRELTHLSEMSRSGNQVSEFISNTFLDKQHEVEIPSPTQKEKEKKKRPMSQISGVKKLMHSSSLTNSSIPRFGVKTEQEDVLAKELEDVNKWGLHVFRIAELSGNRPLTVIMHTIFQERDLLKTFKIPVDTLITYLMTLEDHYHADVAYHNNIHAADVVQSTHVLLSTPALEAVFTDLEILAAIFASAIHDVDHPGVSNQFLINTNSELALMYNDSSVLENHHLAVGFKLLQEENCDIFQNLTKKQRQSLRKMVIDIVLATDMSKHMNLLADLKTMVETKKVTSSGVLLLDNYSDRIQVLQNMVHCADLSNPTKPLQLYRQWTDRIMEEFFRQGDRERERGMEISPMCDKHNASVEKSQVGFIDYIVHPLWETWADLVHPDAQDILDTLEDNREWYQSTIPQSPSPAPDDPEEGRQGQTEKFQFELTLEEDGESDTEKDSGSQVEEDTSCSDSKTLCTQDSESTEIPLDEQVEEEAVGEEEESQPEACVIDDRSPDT
Format: biochemical
Experimental: Assay 1: In vitro evaluation of inhibitory activities of the compounds against PDE4B2 and PDE4D2 enzymes 1. Assay materials and instruments:
2. Assay procedure: • 2.1 Compound preparation and treatment • 2.1.1 Preparing stock solutions of compounds in DMSO: Compound powders were dissolved in 100% DMSO to produce 10 mM stock solutions, and oscillated in a shaker until the compounds were completely dissolved. • 2.1.2 Storing stock solutions of compounds in DMSO: Stock solutions of compounds in DMSO were stored in a desiccator at room temperature. • 2.1.3 Preparing working stock solutions: a) A solution of Roflumilast (reference compound) in DMSO was diluted to 60 µM, and then serially diluted 4-fold into 10 concentration gradients. B) The solutions of the test compounds in DMSO were diluted to 200 µM, and then serially diluted 3-fold. C) A 200X positive control (60 µM Roflumilast) and a 200X vehicle control (100% DMSO) were prepared. D) The assay plate was centrifuged at 1000 rpm for 1 minute. • 2.2 Compound testing • (1) 20 nL of compound dilution solutions were transferred with Echo 550 into each well of the assay plate. • (2) The assay plate was sealed and centrifuged at 1000 rpm for 1 minute. • (3) 2X PDE4B2/PDE4D2 was prepared in an ice-cold PDE assay buffer. • (4) 2 µL of 2X PDE4B2/PDE4D2 was added to each well of the assay plate prepared in step 2. • (5) The assay plate was sealed and allowed to equilibrate at room temperature for 10 minutes. • (6) 2X Cyclic-3',5'-AMP was prepared in a PDE assay buffer. • 7) 2µL of 2X Cyclic-3',S'-AMP (prepared in step 6) was added to each well of the assay plate (prepared in step 5) to initiate the reaction. The plate was incubated at room temperature for 60 minutes. • 8) 4µL AMP-Glo Reagent I was added, and the plate was incubated at room temperature for 60 minutes. • 9) 8µL AMP detection reagent was added. The plate was incubated at room temperature for 60 minutes. • 10) The RLU signal was read on an Envision 2105 plate reader.

| PDE4D2/PDE4B2 selectivity | Structure (SMILES) |
| --- | --- |
| B (2<B≤5) | COc1cc(C2(O)CN(c3nc4c(c(NC5(CO)CCC5)n3)[S+]([O-])CC4)C2)ccc1Cl (racemic) [Compound 3, (R/S)-2-(3-(4-chloro-3-methoxyphenyl)-3-hydroxyazetidin-1-yl)-4-((1-(hydroxymethyl)cyclobutyl)amino)-6,7-dihydrothieno[3,2-d]pyrimidine 5-oxide] |
| B (2<B≤5) | [O-][S+]1CCc2nc(N3CC=C(c4ccc(OC(F)F)cc4)C3)nc(NC3(CO)CCC3)c21 (racemic) [Compound 14, (R/S)-2-(3-(4-(difluoromethoxy)phenyl)-2,5-dihydro-1H-pyrrol-1-yl)-4-((1-(hydroxymethyl)cyclobutyl)amino)-6,7-dihydrothieno[3,2-d]pyrimidine 5-oxide] |
| A (5<A≤10) | COC1(c2ccc(Cl)c(F)c2)CN(c2nc3c(c(NC4(CO)CCC4)n2)[S+]([O-])CC3)C1 (racemic) [Compound 82, (R/S)-2-(3-(4-chloro-3-fluorophenyl)-3-methoxyazetidin-1-yl)-4-((1-(hydroxymethyl)cyclobutyl)amino)-6,7-dihydrothieno[3,2-d]pyrimidine 5-oxide] |
| A (5<A≤10) | COC1(c2ccc(Cl)cc2)CN(c2nc3c(c(NC4(CO)CCC4)n2)[S+]([O-])CC3)C1 (racemic) [Compound 83, (R/S)-2-(3-(4-chlorophenyl)-3-methoxyazetidin-1-yl)-4-((1-(hydroxymethyl)cyclobutyl)amino)-6,7-dihydrothieno[3,2-d]pyrimidine 5-oxide] |
| B (2<B≤5) | COC1(c2ccc(Cl)c(F)c2)CN(c2nc3c(c(NC4CCOCC4)n2)[S+]([O-])CC3)C1 (racemic) [Compound 86, (R/S)-2-(3-(4-chloro-3-fluorophenyl)-3-methoxyazetidin-1-yl)-4-((tetrahydro-2H-pyran-4-yl)amino)-6,7-dihydrothieno[3,2-d]pyrimidine 5-oxide] |
| B (2<B≤5) | [O-][S+]1CCc2nc(N3Cc4ccc(OC(F)F)cc4C3)nc(NC3(CO)CCC3)c21 (racemic) [Compound 87, (R/S)-2-(5-(difluoromethoxy)isoindolin-2-yl)-4-((1-(hydroxymethyl)cyclobutyl)amino)-6,7-dihydrothieno[3,2-d]pyrimidine 5-oxide] |
| B (2<B≤5) | COC1(c2ccc(Cl)cc2)CN(c2nc3c(c(NC4CCOCC4)n2)[S+]([O-])CC3)C1 (racemic) [Compound 88, (R/S)-2-(3-(4-chlorophenyl)-3-methoxyazetidin-1-yl)-4-((tetrahydro-2H-pyran-4-yl)amino)-6,7-dihydrothieno[3,2-d]pyrimidine 5-oxide] |
| A (5<A≤10) | [2H]C([2H])([2H])OC1(c2ccc(Cl)cc2)CN(c2nc3c(c(NC4(CO)CCC4)n2)[S+]([O-])CC3)C1 (racemic) [Compound 92, (R/S)-2-(3-(4-chlorophenyl)-3-(methoxy-d3)azetidin-1-yl)-4-((1-(hydroxymethyl)cyclobutyl)amino)-6,7-dihydrothieno[3,2-d]pyrimidine 5-oxide] |
| B (2<B≤5) | [2H]C([2H])([2H])OC1(c2ccc(Cl)cc2)CN(c2nc3c(c(NC4CCOCC4)n2)[S+]([O-])CC3)C1 (racemic) [Compound 94, (R/S)-2-(3-(4-chlorophenyl)-3-(methoxy-d3)azetidin-1-yl)-4-((tetrahydro-2H-pyran-4-yl)amino)-6,7-dihydrothieno[3,2-d]pyrimidine 5-oxide] |
| B (2<B≤5) | COC1(c2ccc(OC(F)F)cc2)CN(c2nc3c(c(NC4(CO)CCC4)n2)[S+]([O-])CC3)C1 (racemic) [Compound 105, (R/S)-2-(3-(4-(difluoromethoxy)phenyl)-3-methoxyazetidin-1-yl)-4-((1-(hydroxymethyl)cyclobutyl)amino)-6,7-dihydrothieno[3,2-d]pyrimidine 5-oxide] |
| B (2<B≤5) | COC1(c2ccc(OCC3CC3)cc2)CN(c2nc3c(c(NC4(CO)CCC4)n2)[S+]([O-])CC3)C1 (racemic) [Compound 106, (R/S)-2-(3-(4-(cyclopropylmethoxy)phenyl)-3-methoxyazetidin-1-yl)-4-((1-(hydroxymethyl)cyclobutyl)amino)-6,7-dihydrothieno[3,2-d]pyrimidine 5-oxide] |
| B (2<B≤5) | COC1(c2ccc(N3CCCC3)cc2)CN(c2nc3c(c(NC4(CO)CCC4)n2)[S+]([O-])CC3)C1 (racemic) [Compound 107, (R/S)-4-((1-(hydroxymethyl)cyclobutyl)amino)-2-(3-methoxy-3-(4-(pyrrolidin-1-yl)phenyl)azetidin-1-yl)-6,7-dihydrothieno[3,2-d]pyrimidine 5-oxide] |
| B (2<B≤5) | COc1ccc(C2(OC)CN(c3nc4c(c(NC5CCOCC5)n3)[S+]([O-])CC4)C2)cc1 (racemic) [Compound 108, (R/S)-2-(3-methoxy-3-(4-methoxyphenyl)azetidin-1-yl)-4-((tetrahydro-2H-pyran-4-yl)amino)-6,7-dihydrothieno[3,2-d]pyrimidine 5-oxide] |
| C (C≤2) | [O-][S+]1CCc2nc(N3CCC(c4ncc(Cl)cn4)CC3)nc(NC3(CO)CCC3)c21 (stereo not shown) [Control 1, reference compound] |

From EP4674852A1, “PREPARATION METHOD FOR AND USE OF DIHYDROTHIENOPYRIMIDINE DERIVATIVE” (Innovstone Therapeutics Limited, priority 2023, dated 2024)
